Source: PMC7531004, “Discovery of gramicidin A analogues with altered activities by multidimensional screening of a one-bead-one-compound library” (Nature Communications, 2020)
Where a SMILES comes first, the peptide text is derived from it. [ ]: non-standard residue; d: D form. The star is where a group is joined. NHCH2CH2OH = OCCN*; For = O=C*

Tests used:
[1] = H+/Na+ transport assay of bead-derived peptides (one-point); type: biochemical; set-up: key: relative activity; mean of two control wells = 1.00; conditions: bead-derived peptide solution, EYPC/EYPG LUVs;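 also: relative to parent gramicidin A activity set to 1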
Description: (§1) Each type of assay must be simplified and miniaturized to assess the activities of the library peptides in a 96-well format for the high-throughput screening.
H+/Na+ transport assay of bead-derived peptides.1,2,3 Trisodium 8-hydroxypyrene-1,3,6-trisulfonate
mini-extruder apparatus (Avanti Polar Lipids).
28.9 µmol) in CHCl3 (225 µL) and egg yolk phosphatidylglycerol (1.20 mg, 1.56 µmol) in CHCl3 (60.0 µL)
The thin film was hydrated and
1.0 mM pyranine) by sonication.
A suspension of the LUVs was immediately
used for the H+/Na+ transport assay.
The diluted solution of peptide
flat-bottom 96-well plate (655086, Greiner bio-one).
was vortexed at room temperature for 30 min.
(5/95, 3.0 µL) and the LUV suspension were mixed in each plate to determine 100% lysis. The untreated
LUV suspension was used to determine 0% lysis.
normalized against 100% lysis by Triton X-100 (Imax) and 0% lysis (I0) as following, where Ix is the
fluorescence intensity (Supplementary Equation 2).
I = 100 × (Ix – I0) / (Imax – I0) (2)
The mean value of the two control wells was set to 1.00. […]

[2] = test system: P388 mouse leukemia cells; conditions: 92 h
Description: Each type of assay must be simplified and miniaturized to assess the activities of the library peptides in a 96-well format for the high-throughput screening. […]
Mammalian cytotoxicity assay of bead-derived peptides . P388 cells were obtained from Institute of
Development Aging and Cancer (Tohoku University). The cells were maintained with growth medium
[RPMI1640 with phenol red ( Fujifilm Wako Pure Chemical) supplemented with 10% heat -inactivated fetal
bovine serum, pe nicillin G (100 units/mL), and streptomycin (100 µg/mL)] under atmosphere of 5% CO 2 at
The collected cells were resuspended into
the growth medium at 2 × 10^4 cells/mL. The stock solutions of the peptide library were 250-fold diluted
with the growth medium. Aliquots of the medium (100 µL) containing peptides and the latter medium
containing P388 cells (100 µL) were mixed in a 96-well cell culture plate (TR5003, TrueLine). The final
concentration of P388 cells was 1 × 10^4 cells/mL. After incubation under atmosphere of 5% CO2 at 37 °C
for 92 h, the numbers of viable cells were determined by
2-(4-iodophenyl)-3-(4-nitrophenyl)-5-(2,4-disulfophenyl)-2H-tetrazolium, monosodium salt (WST-1) assay.
A solution of 1-methoxy-5-methylphenazinium methyl sulfate (1-methoxy PMS) and WST-1 in the growth
medium (1-methoxy PMS 0.70 mg/mL in Milli-Q/WST-1 3.6 mg/mL in pH 7.4 HEPES buffer = 1/9) was
added to each well of the plate (10.0 µL/well). The plate was incubated for 4 h under atmosphere of 5% CO2
at 37 °C. The absorbance of each well at 415 nm was measured using a Benchmark microplate reader
(Bio-Rad). The cytotoxicities were evaluated as cell viability (%). […]

[3] = test system: Streptococcus pyogenes SSI-9; experiment: Antibacterial activity assay of bead-derived peptides (three concentrations); type: cell-based; set-up: key: +++: inhibition by the 640-fold diluted peptide solution; ++: inhibition by the 160-fold diluted solution; +: inhibition by the 40-fold diluted solution; -: no inhibition; conditions: S. pyogenes, bead-derived peptide solution, three concentrations
Description: as §1
Next, the peptides in groups A and B were subjected to the antibacterial assay and structural determination. Three peptide concentrations were applied to evaluate the growth inhibition of S. pyogenes and determine the antibacterial activity. […] Finally, the structures of the peptides were determined. […]
Antibacterial activity assay of bead-derived peptides. The stock solution of the peptide library was 4- and […]
16-fold diluted with DMSO. The non-diluted stock solution, 4-fold diluted solution, and 16-fold diluted […]
solution were transferred to the 96-well round-bottom plate (3367, Corning, 1.0 µL/well). To the solution of […]
peptide in each well was added a suspension of Streptococcus pyogenes SSI-9 strain in cation adjusted […]
Mueller Hinton Broth [40.0 µL, 2 × 10^5 colony forming units (CFU), 21 g/L Mueller Hinton Broth (Difco), 50 […]
mg/L Ca2+ (adjusted with CaCl2•2H2O), and 25 mg/L Mg2+ (adjusted with MgCl2•6H2O)] supplemented with […]
5% laked horse blood (Nippon Biotest Laboratories). The plate was incubated at 37 °C for 18 h, and the precipitation of the grown cells was examined. […]

SMILES	H+/Na+ transport activity normalized against the value of 1 (1.00) [1]	cell viability/% [2]	antibacterial activity [3]
CC(C)C[C@@H](NC(=O)[C@H](C)NC(=O)CNC(=O)[C@@H](NC=O)C(C)C)C(=O)N[C@@H](C)C(=O)N[C@H](CC(C)C)C(=O)N[C@H](C(=O)N[C@H](CC(C)C)C(=O)N[C@@H](Cc1c[nH]c2ccccc12)C(=O)N[C@H](CC(C)C)C(=O)N[C@@H](Cc1c[nH]c2ccccc12)C(=O)N[C@@H](C(=O)N[C@@H](Cc1c[nH]c2ccccc12)C(=O)N[C@H](CC(C)C)C(=O)N[C@@H](Cc1c[nH]c2ccccc12)C(=O)NCCO)C(C)C)C(C)C [compound 9473] (For-VGA[dL]A[dL]V[dL]W[dL]W[dV]W[dL]W-NHCH2CH2OH)	1.04	0.0%	-
CC(C)C[C@@H](NC(=O)[C@H](Cc1c[nH]c2ccccc12)NC(=O)[C@H](NC(=O)[C@H](Cc1c[nH]c2ccccc12)NC(=O)[C@H](NC(=O)[C@H](Cc1c[nH]c2ccccc12)NC(=O)[C@H](NC(=O)[C@@H](NC(=O)[C@H](NC(=O)[C@H](C)NC(=O)[C@H](NC(=O)[C@H](C)NC(=O)CNC(=O)[C@@H](NC=O)C(C)C)C(C)C)[C@H](C)O)C(C)C)C(C)C)C(C)C)C(C)C)C(=O)N[C@@H](Cc1c[nH]c2ccccc12)C(=O)NCCO [compound 9058] (For-VGA[dV]A[dT]V[dV]W[dV]W[dV]W[dL]W-NHCH2CH2OH)	1.14	58.0%	-
CC(C)C[C@@H](NC(=O)[C@H](C)NC(=O)CNC(=O)[C@@H](NC=O)C(C)C)C(=O)N[C@@H](C)C(=O)N[C@H](CC(C)C)C(=O)N[C@H](C(=O)N[C@@H](C(=O)N[C@@H](Cc1c[nH]c2ccccc12)C(=O)N[C@H](CC(C)C)C(=O)N[C@@H](Cc1c[nH]c2ccccc12)C(=O)N[C@@H](C(=O)N[C@@H](Cc1c[nH]c2ccccc12)C(=O)N[C@@H](C(=O)N[C@@H](Cc1c[nH]c2ccccc12)C(=O)NCCO)C(C)C)[C@H](C)O)C(C)C)C(C)C [compound 13273] (For-VGA[dL]A[dL]V[dV]W[dL]W[dT]W[dV]W-NHCH2CH2OH)	1.05	100.0%	-
CC(C)C[C@@H](NC(=O)[C@H](C)NC(=O)CNC(=O)[C@@H](NC=O)C(C)C)C(=O)N[C@@H](C)C(=O)N[C@H](CC(C)C)C(=O)N[C@H](C(=O)N[C@@H](C(=O)N[C@@H](Cc1c[nH]c2ccccc12)C(=O)N[C@@H](C(=O)N[C@@H](Cc1c[nH]c2ccccc12)C(=O)N[C@@H](C(=O)N[C@@H](Cc1c[nH]c2ccccc12)C(=O)N[C@@H](C(=O)N[C@@H](Cc1c[nH]c2ccccc12)C(=O)NCCO)C(C)C)C(C)C)C(C)C)C(C)C)C(C)C [compound 7100] (For-VGA[dL]A[dL]V[dV]W[dV]W[dV]W[dV]W-NHCH2CH2OH)	1.07	100.0%	-
CC(C)C[C@@H](NC(=O)[C@H](C)NC(=O)[C@H](NC(=O)[C@H](C)NC(=O)CNC(=O)[C@@H](NC=O)C(C)C)[C@H](C)O)C(=O)N[C@H](C(=O)N[C@H](CC(C)C)C(=O)N[C@@H](Cc1c[nH]c2ccccc12)C(=O)N[C@H](CC(C)C)C(=O)N[C@@H](Cc1c[nH]c2ccccc12)C(=O)N[C@@H](C(=O)N[C@@H](Cc1c[nH]c2ccccc12)C(=O)N[C@H](CC(C)C)C(=O)N[C@@H](Cc1c[nH]c2ccccc12)C(=O)NCCO)C(C)C)C(C)C [compound 1516] (For-VGA[dT]A[dL]V[dL]W[dL]W[dV]W[dL]W-NHCH2CH2OH)	1.06	100.0%	-
CC(C)C[C@@H](NC(=O)[C@H](C)NC(=O)CNC(=O)[C@@H](NC=O)C(C)C)C(=O)N[C@@H](C)C(=O)N[C@H](CC(C)C)C(=O)N[C@H](C(=O)N[C@@H](C(=O)N[C@@H](Cc1c[nH]c2ccccc12)C(=O)N[C@@H](C(=O)N[C@@H](Cc1c[nH]c2ccccc12)C(=O)N[C@H](CC(C)C)C(=O)N[C@@H](Cc1c[nH]c2ccccc12)C(=O)N[C@H](CC(C)C)C(=O)N[C@@H](Cc1c[nH]c2ccccc12)C(=O)NCCO)C(C)C)C(C)C)C(C)C [compound 8858] (For-VGA[dL]A[dL]V[dV]W[dV]W[dL]W[dL]W-NHCH2CH2OH)	1.05	84.7%	+
CC(C)C[C@@H](NC(=O)[C@H](C)NC(=O)CNC(=O)[C@@H](NC=O)C(C)C)C(=O)N[C@@H](C)C(=O)N[C@H](CC(C)C)C(=O)N[C@H](C(=O)N[C@H](CC(C)C)C(=O)N[C@@H](Cc1c[nH]c2ccccc12)C(=O)N[C@@H](C(=O)N[C@@H](Cc1c[nH]c2ccccc12)C(=O)N[C@H](CC(C)C)C(=O)N[C@@H](Cc1c[nH]c2ccccc12)C(=O)N[C@@H](C(=O)N[C@@H](Cc1c[nH]c2ccccc12)C(=O)NCCO)C(C)C)[C@H](C)O)C(C)C [compound 7480] (For-VGA[dL]A[dL]V[dL]W[dT]W[dL]W[dV]W-NHCH2CH2OH)	1.01	100.0%	-
CNC(=O)C[C@@H](NC(=O)[C@H](C)NC(=O)[C@@H](CC(C)C)NC(=O)[C@H](C)NC(=O)CNC(=O)[C@@H](NC=O)C(C)C)C(=O)N[C@H](C(=O)N[C@@H](C(=O)N[C@@H](Cc1c[nH]c2ccccc12)C(=O)N[C@H](CC(C)C)C(=O)N[C@@H](Cc1c[nH]c2ccccc12)C(=O)N[C@@H](C(=O)N[C@@H](Cc1c[nH]c2ccccc12)C(=O)N[C@H](CC(C)C)C(=O)N[C@@H](Cc1c[nH]c2ccccc12)C(=O)NCCO)C(C)C)C(C)C)C(C)C [compound 9352] (For-VGA[dL]A[dD](NHMe)V[dV]W[dL]W[dV]W[dL]W-NHCH2CH2OH)	1.18	100.0%	-
CNC(=O)C[C@@H](NC(=O)[C@@H](NC(=O)[C@H](NC(=O)[C@H](C)NC(=O)[C@@H](CC(C)C)NC(=O)[C@H](C)NC(=O)CNC(=O)[C@@H](NC=O)C(C)C)C(C)C)C(C)C)C(=O)N[C@@H](Cc1c[nH]c2ccccc12)C(=O)N[C@H](CC(C)C)C(=O)N[C@@H](Cc1c[nH]c2ccccc12)C(=O)N[C@H](CC(C)C)C(=O)N[C@@H](Cc1c[nH]c2ccccc12)C(=O)N[C@@H](C(=O)N[C@@H](Cc1c[nH]c2ccccc12)C(=O)NCCO)C(C)C [compound 8831] (For-VGA[dL]A[dV]V[dD](NHMe)W[dL]W[dL]W[dV]W-NHCH2CH2OH)	1.23	81.1%	-
CC(C)C[C@@H](NC(=O)[C@H](C)NC(=O)CNC(=O)[C@@H](NC=O)C(C)C)C(=O)N[C@@H](C)C(=O)N[C@H](CC(C)C)C(=O)N[C@H](C(=O)N[C@@H](C(=O)N[C@@H](Cc1c[nH]c2ccccc12)C(=O)N[C@@H](C(=O)N[C@@H](Cc1c[nH]c2ccccc12)C(=O)N[C@@H](C(=O)N[C@@H](Cc1c[nH]c2ccccc12)C(=O)N[C@@H](C(=O)N[C@@H](Cc1c[nH]c2ccccc12)C(=O)NCCO)C(C)C)C(C)C)C(C)C)C(C)C)C(C)C [compound 5488] (For-VGA[dL]A[dL]V[dV]W[dV]W[dV]W[dV]W-NHCH2CH2OH)	1.23	36.4%	+
